# Reference: patent publication US20240140949A1, “ANTI-CANCER PHARMACEUTICAL COMPOSITION FOR TARGETING HEAT SHOCK PROTEIN 70, CONTAINING INDOLOQUINAZOLIDINE ALKALOID” (SEOUL NATIONAL UNIVERSITY R & DB FOUNDATION, priority 2021, published 2024)
# Columns and labels:
# lung cancer cells = assay: Anchorage-independent (soft agar) colony formation; type: cell-based; details: soft agar (FIG. 20)
# Experimental: Before the experiment, a 1% agar solution made with low-melting agar was placed in a 24-well plate and hardened at room temperature to create a bottom agar. The cells were diluted with medium to seed 2×10^3 cells per well in a 24-well plate. Then, it was mixed with a 1% agar solution to create a final 0.4% agar solution, which was then solidified at room temperature in the plate containing the bottom agar. Medium containing the drug was added on top of the cells mixed in the agar and cultured for 1-3 weeks at 37° C. in a 5% CO2 condition, after which the formed colonies were stained with an MTT solution of 250-500 μg/mL and counted. The colony formation inhibitory effect of the drug was calculated by expressing the change in colony numbers in the drug-treated group compared to the vehicle (DMSO) treated control group as a percentage.
# [1] = system: cancer cells derived from various origins; assay: Cell viability (MTT or crystal violet assay) in cancer cell lines of various origins; type: cell-based, human; details: various concentrations, 3 days, cancer cells of various origins (FIG. 2)
# Description: Human lung cancer cell lines (H1299, H460, A549, H226B, and PC9), breast cancer cell line (MDA-MB-231), liver cancer cell line (Hep3B), kidney cancer cell line (786-0), prostate cancer cell lines (DU145 and PC-3), and mouse lung cancer cell line (Lewis Lung Carcinoma, LLC) were purchased from ATCC (American Type Culture Collection) or obtained from Dr. John V. Heymach of MD Anderson Cancer Center, USA. The human head and neck cancer cell line (UMSCC38) was obtained from Dr. Jeffrey N. Myers (MD Anderson Cancer Center, USA). […]
# The cancer cell lines were seeded in a 96-well plate at a density of 2×10^3 cells per well and cultured for 24 hours to allow the cells to attach. The cells were then treated with diluted drugs in media for 3 days and cell viability was assessed using MTT assay or crystal violet (CB) assay. For the MTT assay, MTT solution dissolved in PBS was added to achieve a final concentration of 500 μg/mL and incubated for 2-4 hours, after which the medium was removed and the formed formazan was dissolved in 100% DMSO, followed by measuring the absorbance at 570 nm. For the CB assay, the cultured cells were fixed with 100% methanol, stained with a 0.025% crystal violet solution, dissolved in 1% SDS solution, and the absorbance was measured at 570 nm. […]
# [2] = molecular target: T1, Hsp70 protein (full length, N-terminal domain) (Homo sapiens, UniProt P0DMV8); assay: Drug affinity responsive target stability (DARTS); type: binding; details: up to 10 μM, proteinase K (FIG. 6)
# T1 construct: 35 μg of Hsp70 full length, Hsp70 N-terminal, Hsp70 C-terminal proteins were treated with vehicle (DMSO)
# T1 sequence (P0DMV8 2-641): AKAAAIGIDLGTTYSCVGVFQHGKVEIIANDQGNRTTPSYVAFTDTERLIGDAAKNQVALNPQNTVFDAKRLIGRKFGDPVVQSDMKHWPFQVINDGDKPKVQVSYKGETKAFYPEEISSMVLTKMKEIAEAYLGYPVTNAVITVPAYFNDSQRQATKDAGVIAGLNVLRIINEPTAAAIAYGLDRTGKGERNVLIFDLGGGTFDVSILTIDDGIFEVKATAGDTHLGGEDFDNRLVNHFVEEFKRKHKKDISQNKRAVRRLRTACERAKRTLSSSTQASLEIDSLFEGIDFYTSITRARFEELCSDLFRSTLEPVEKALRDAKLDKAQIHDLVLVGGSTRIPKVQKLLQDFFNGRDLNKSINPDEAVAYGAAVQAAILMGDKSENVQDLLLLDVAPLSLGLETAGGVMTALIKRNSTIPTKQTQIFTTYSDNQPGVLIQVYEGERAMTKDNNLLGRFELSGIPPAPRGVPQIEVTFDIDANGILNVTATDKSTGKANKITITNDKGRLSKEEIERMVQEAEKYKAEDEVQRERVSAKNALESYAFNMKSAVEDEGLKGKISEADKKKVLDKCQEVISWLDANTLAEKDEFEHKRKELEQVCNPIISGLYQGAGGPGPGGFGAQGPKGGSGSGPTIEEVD
# Experimental: 35 μg of Hsp70 full length, Hsp70 N-terminal, Hsp70 C-terminal proteins were treated with vehicle (DMSO) or up to 10 μM of EV507 (final DMSO concentration: 1%) at 4° C. for 30 minutes, followed by a treatment with proteinase K (proteinase K:protein=1:100) at room temperature for 15 minutes. The reaction was terminated by adding a 5×SDS-PAGE sample buffer and boiling at 95° C. for 5 minutes, after which electrophoresis was performed with 8% SDS-PAGE. The proteins were transferred to a PVDF membrane, and the Western blot analysis method described above was performed.
# [3] = system: tumors derived from lung cancer patients; assay: Lung cancer patient-derived tumor xenograft growth in NOD/SCID mice; type: in vivo, mouse; details: 20 mg/kg orally six times a week, vs control group (FIG. 7)
# Experimental: H460 cells (5×10^6 cells/spot) or lung cancer patient-derived tumors were implanted into the flank of 6-week-old NOD/SCID mice, or LLC-Luc cells (5×10^5 cells/spot) were implanted into the flank of 8-week-old C57BL/6 mice to form tumors. When the tumor volume reached 50-100 mm^3, the mice were divided into control and experimental groups (with at least 6 mice assigned to each group), and the control group was administered with vehicle (10% DMSO and 40% PEG400 solution prepared in sterile distilled water), while the experimental group was administered with EV507 (20 mg/kg) six times a week orally. The major and minor axes of the tumor were measured, and the tumor size was measured at least 3-4 times a week, and the body weight was measured at least once a week to evaluate the toxicity of the drug. Also, the survival of C57BL/6 mice implanted with LLC-Luc cells was monitored to determine the survival curve. The tumor volume was calculated as (width)^2× length×0.5.
compound,measurement,setting,value
C=CCN1c2ccccc2C(=O)N2CCc3c([nH]c4ccc(O)cc34)C21 (stereo not shown) [EV507],anchorage-independent colony formation,lung cancer cells,effectively inhibited
same,anti-cancer survival inhibition efficacy,[1],concentration-dependent anti-cancer survival inhibition efficacy
same,"binding to Hsp70 protein, particularly the N-terminal domain",[2],binds
same,tumor growth,[3],significantly inhibited
